This assay relates to LG0567-F671-PDC KRAS tumor spheroid viability. The experiment in a line: Anticancer human tumor LG0567-F671-PDC patient-derived lung adenocarcinoma cell line growth inhibition [KRAS2]. Conditions: spheroids with HUVEC and MSC; for viability, T/C: stronger effect = lower value. In a few lines: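 KRAS-mutant tumor cells were grown as spheroids with HUVEC endothelial cells and human MSCs as stroma. Targeted agents were tested alone and with KRAS pathway inhibitors. Doses started at or near clinical Cmax, or 10 microM, descending half-log.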

Where [1] appears, read: curve of first compound, second compound 0.1 µM.
Setting [2] is: curve of first compound, second compound 0.316 µM.
[3] abbreviates: curve of first compound, second compound 1 µM.
The mark [4] stands for this setting: curve of first compound, second compound 3.16 µM.
Setting [5] is: curve of first compound, second compound 10 µM.
Setting [6] is: second compound 0.1 µM, first compound 0.000316 µM.
Setting [7] is: second compound 0.1 µM, first compound 0.001 µM.
[8] abbreviates: second compound 0.1 µM, first compound 0.00316 µM.
The mark [9] stands for this setting: second compound 0.1 µM, first compound 0.01 µM.
Setting [10] is: second compound 0.1 µM, first compound 0.0316 µM.
The mark [11] stands for this setting: second compound 0.316 µM, first compound 0.000316 µM.
The mark [12] stands for this setting: second compound 0.316 µM, first compound 0.001 µM.
The mark [13] stands for this setting: second compound 0.316 µM, first compound 0.00316 µM.
Setting [14] is: second compound 0.316 µM, first compound 0.01 µM.
[15] abbreviates: second compound 0.316 µM, first compound 0.0316 µM.
[16] abbreviates: second compound 1 µM, first compound 0.000316 µM.
Setting [17] is: second compound 1 µM, first compound 0.001 µM.
The mark [18] stands for this setting: second compound 1 µM, first compound 0.00316 µM.
[19] abbreviates: second compound 1 µM, first compound 0.01 µM.
The mark [20] stands for this setting: second compound 1 µM, first compound 0.0316 µM.
Where [21] appears, read: second compound 3.16 µM, first compound 0.000316 µM.
Setting [22] is: second compound 3.16 µM, first compound 0.001 µM.
[23] abbreviates: second compound 3.16 µM, first compound 0.00316 µM.
The mark [24] stands for this setting: second compound 3.16 µM, first compound 0.01 µM.
The mark [25] stands for this setting: second compound 3.16 µM, first compound 0.0316 µM.
Setting [26] is: second compound 10 µM, first compound 0.000316 µM.
[27] abbreviates: second compound 10 µM, first compound 0.001 µM.
Where [28] appears, read: second compound 10 µM, first compound 0.00316 µM.
Setting [29] is: second compound 10 µM, first compound 0.01 µM.
Setting [30] is: second compound 10 µM, first compound 0.0316 µM.

Molecules are shown by their SMILES. Activity calls are given as the source filed them. The calls were made as follows: active = viability on the fitted dose curve at most 10% of control; inactive = the rest.
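For IC50 in this document: drug exposure lasted seven days after spheroids formed for three days.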
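For viability, T/C in this document: drug exposure lasted seven days after spheroids formed for three days; 100% = DMSO vehicle control viability.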

Consider `CC(=O)Nc1cccc(-n2c(=O)n(C3CC3)c(=O)c3c(Nc4ccc(I)cc4F)n(C)c(=O)c(C)c32)c1` + COc1cc2nc(C)nc(NC(C)c3cc(N)cc(C(F)(F)F)c3)c2cc1OC1CCOC1, for which the IC50 – broadly, the concentration that inhibits the measured activity by half – by setting is: under setting [1], 1 nM; under setting [2], 0.299 nM; under setting [3], below 0.1 nM; under setting [4], below 0.1 nM; under setting [5], below 0.1 nM. Also, the viability, T/C (in general, the result in the treated group divided by that in the control group, in per cent) was 69.8% (second compound 0.1 µM, first compound 0.0001 µM); 52.6% under setting [6]; 53% under setting [7]; 39.9% under setting [8]; 25.9% under setting [9]; 8.34% under setting [10]. Also, the viability, T/C is 60.9% (second compound 0.316 µM, first compound 0.0001 µM); 48.7% under setting [11]; 36.3% under setting [12]; 33.2% under setting [13]; 22.7% under setting [14]; 11.8% under setting [15]. For the same compound, the viability, T/C runs as follows: (second compound 1 µM, first compound 0.0001 µM) 45.4%; under setting [16], 43%; under setting [17], 39.7%; under setting [18], 31.2%; under setting [19], 26.8%; under setting [20], 7.58%. Also, the viability, T/C (second compound 3.16 µM, first compound 0.0001 µM) was 48.6%; the viability, T/C under setting [21] was 43.7%; the viability, T/C under setting [22] is 34%; the viability, T/C under setting [23] is 19.2%; the viability, T/C under setting [24] was 17.1%; the viability, T/C under setting [25] was 6.02%. In addition, the viability, T/C was 41.3% (second compound 10 µM, first compound 0.0001 µM); 36.6% under setting [26]; 27.2% under setting [27]; 13.4% under setting [28]; 5.95% under setting [29]; 1.33% under setting [30].

Turning to `O=C(c1cc(Cc2n[nH]c(=O)c3ccccc23)ccc1F)N1CCN(C(=O)C2CC2)CC1`, the viability, T/C (compound 0.0316 µM) was 103% [middle of 5 runs]; the viability, T/C (compound 0.1 µM) is 99.1% [middle of 5 runs]; the viability, T/C (compound 0.316 µM) is 98.6% [middle of 5 runs]; the viability, T/C (compound 1 µM) is 93.1% [middle of 5 runs]; the viability, T/C (compound 3.16 µM) was 93.5% [middle of 5 runs]; the viability, T/C (compound 10 µM) was 97.9% [middle of 5 runs]. The IC50 (curve of compound) is above 10000 nM.

For `CCNC(=O)CC1N=C(c2ccc(Cl)cc2)c2cc(OC)ccc2-n2c(C)nnc21` (stereo not given), the viability, T/C (compound 0.0316 µM) was 115% [middle of 5 runs]; the viability, T/C (compound 0.1 µM) is 103% [middle of 5 runs]; the viability, T/C (compound 0.316 µM) is 80.5% [middle of 5 runs].

With `CN(C)C/C=C/C(=O)Nc1cc2c(Nc3ccc(F)c(Cl)c3)ncnc2cc1O[C@H]1CCOC1` + CC1OCC2(CCN(c3cnc(Sc4ccnc(N)c4Cl)c(N)n3)CC2)C1N, the half-maximal inhibitory concentration (IC50) under setting [1] was found to be 4.99 nM; the IC50 under setting [2] was below 0.316 nM; the IC50 under setting [3] was above 100 nM; the IC50 under setting [4] is below 0.316 nM; the IC50 under setting [5] is below 0.316 nM. Besides, the viability, T/C runs as follows: under setting [6], 55.9%; under setting [7], 51.9%; under setting [8], 50.8%; under setting [9], 52.2%; under setting [10], 43.3%; (second compound 0.1 µM, first compound 0.1 µM) 49.4%. Further, the viability, T/C by setting is: under setting [11], 44.1%; under setting [12], 40.5%; under setting [13], 43.1%; under setting [14], 30.6%; under setting [15], 29.9%; (second compound 0.316 µM, first compound 0.1 µM) 32.7%. Further, the viability, T/C runs as follows: under setting [16], 106%; under setting [17], 84.5%; under setting [18], 96.2%; under setting [19], 78.9%; under setting [20], 59%; (second compound 1 µM, first compound 0.1 µM) 69.3%. For the same compound, the viability, T/C is, setting by setting: under setting [21], 19.9%; under setting [22], 15.2%; under setting [23], 16.2%; under setting [24], 21.2%; under setting [25], 18.4%; (second compound 3.16 µM, first compound 0.1 µM) 21.6%. For the same compound, the viability, T/C reads like this: under setting [28], 15.9%; under setting [30], 13.4%; (second compound 10 µM, first compound 0.1 µM) 12.9%. For the same compound, the outcome is, setting by setting: under setting [26], “inactive”; under setting [27], “inactive”; under setting [29], “inactive”.

Values taken from PubChem BioAssay AID1963856 (Molecular Pharmacology Branch, DTP, NCI, 2024).
